From patent publication US20210330650A1, “SPIROCHROMANE DERIVATIVES” (RICHTER GEDEON NYRT., priority 2018, published 2021)

Tests used:
human α7 nAchR = target: T1, human α7 nAchR (Homo sapiens, UniProt P36544); experiment: Human α7 nicotinic acetylcholine receptor [Ca2+]i assay (Ca2+ fluorometry, PAM concentration-response); type: cell-based; conditions: Flp-In 293 cells expressing human α7 nAchR and human RIC-3; in presence of saturating agonist (mostly PNU-282987, 1 μM)
T1 construct: expressed in transfected cells
Description: Human α7 Nicotinic Acetylcholine Receptor [Ca2+]i Assay
Cells: Flp-In 293 cells stably expressing human α7 nAchR and human RIC-3 (α7 cells, generated in house.)
Materials: 96-well plates coated with PDL (Falcon), culture medium, assay buffer, DMSO, FLIPR Calcium 5 kit (Molecular Devices), probenecid, agonist and PAM test compounds.
Brief Description of the Method (Ca^2+ Fluorometry)
α7 cells stably expressing human α7 nAchR were cultured in the medium detailed above, and were split twice a week. For the fluorometric measurements of cytosolic Ca^2+ ion concentration ([Ca^2+]i) cells were seeded in 96-well microplates at a density of 60000 cells/well and maintained overnight in a tissue culture incubator at 37° C. under an atmosphere of 95% air/5% CO2. The plating medium was identical with the culture medium. 50 μl of the growth medium was aspirated with a cell washer (BioTek Elx405UCVWS). Then 50 μl/well Calcium 5 kit diluted 2-fold in assay buffer was added manually using an 8-channel pipette. After an incubation period (20 minutes, 37° C.) 50 μl/well assay buffer containing vehicle (DMSO, 4% added) or reference α7 PAMs (4× of the final concentration) were added manually and the cells were incubated for an additional 10 minutes at 37° C. Baseline and agonist-evoked [Ca^2+]i-changes were monitored with FlexStation II (Molecular Devices, Sunnyvale, Calif.), a plate reader fluorometer with integrated 8-channel fluid addition capability. Fluorescence measurements were carried out at 37° C. The dye was excited at 485 nm, emission was sampled at 525 nm at 1.4-s intervals. Baseline was recorded for 20 seconds followed by agonist stimulation. 50 μl 4× concentrated agonist solution was added to the cells using the pipettor of FlexStation II and fluorescence was monitored for an additional 40 seconds. Final DMSO concentration was 1% for all treatments. To achieve this, a series of DMSO stock solutions were prepared from all test compounds. These stocks were stored under 0° C. and were further diluted in assay buffer to obtain the desired final concentration immediately before the measurement. Agonist and PAM concentration-response studies were conducted in the presence of saturating concentrations of PAMs (mostly PNU-120596, 5 μM) and agonists (mostly PNU-282987, 1 μM), respectively. Results were expressed as ΔF/F values using SoftMax Pro software (Molecular Devices), where F was the resting fluorescence preceding agonist application and ΔF was the increase in fluorescence at a given time (ΔF=maximum fluorescence intensity values after stimulation minus average fluorescence intensity values before stimulation). In all experiments, all treatments were measured in multiple wells in parallel, and the mean ΔF/F values were used for analysis.

Male NMRI mice = experiment: Place recognition test (Y-maze), reversal of scopolamine-induced amnesia; type: in vivo; conditions: scopolamine 1 mg/kg i.p.
Description: In Vivo Pharmacology (Place Recognition Test)
Animals: Male NMRI mice (Toxicoop, Hungary)
Substances: Scopolamine was dissolved in saline and administered at 1 mg/kg dose i.p. Test compounds were administered 30 minutes before the acquisition trial (T1) and scopolamine after the acquisition trial at a volume of 0.1 ml/10 g.
Procedure: The task was carried out in a transparent plexiglass Y-maze (each arm has a length of 40 cm, an inner width of 11 cm and a height of 30 cm). Numerous visual cues were placed around the arms and were kept constant during the experiment. The test consisted of two trials (T1 and T2) separated by an intertrial interval of 30 minutes. Mice were placed in the starting arm of the maze at the beginning of each trial. In T1, one of the symmetric arms of the maze was closed (it will be novel in T2) and the animals were allowed to explore the maze for 5 minutes (acquisition phase). In T2, mice had free access to all three arms for 2 minutes (retrieval phase). The time spent with exploration in the novel and familiar arms during T2 was measured. Differences between the exploration times spent in the familiar vs. novel arms of the maze for each group were evaluated by MANOVA, followed by Duncan post hoc test.

T1 sequence (P36544 23-502): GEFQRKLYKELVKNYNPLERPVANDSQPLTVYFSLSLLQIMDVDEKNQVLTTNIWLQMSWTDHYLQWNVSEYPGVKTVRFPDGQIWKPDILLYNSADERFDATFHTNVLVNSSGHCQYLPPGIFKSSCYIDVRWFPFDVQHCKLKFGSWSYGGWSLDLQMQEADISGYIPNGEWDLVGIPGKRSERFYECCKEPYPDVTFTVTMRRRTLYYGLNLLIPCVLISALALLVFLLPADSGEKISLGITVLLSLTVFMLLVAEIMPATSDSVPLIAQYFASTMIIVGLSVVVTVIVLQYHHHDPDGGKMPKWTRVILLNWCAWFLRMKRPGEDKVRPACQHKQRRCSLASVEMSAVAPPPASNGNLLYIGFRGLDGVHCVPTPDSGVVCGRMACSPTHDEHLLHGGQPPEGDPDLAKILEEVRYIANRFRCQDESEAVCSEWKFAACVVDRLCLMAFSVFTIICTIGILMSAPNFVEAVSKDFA

| EC50 (human α7 nAchR) [nM] | Compound | reversal of the scopolamine-induced amnesia in the place recognition assay (exploration time novel vs. familiar arm, significance) (Male NMRI mice; 1 mg/kg i.p.) | reversal of the scopolamine-induced amnesia in the place recognition assay (exploration time novel vs. familiar arm, significance) (Male NMRI mice; 3 mg/kg i.p.) | reversal of the scopolamine-induced amnesia in the place recognition assay (exploration time novel vs. familiar arm, significance) (Male NMRI mice; 10 mg/kg i.p.) |
| --- | --- | --- | --- | --- |
| 120 | Cc1cc2cc(CNC(=O)N3CC4(CC(=O)c5cc(F)ccc5O4)C3)ccc2[nH]1 [Example 1, 6′-Fluoro-N-[(2-methyl-1H-indol-5-yl)methyl]-4′-oxo-3′,4′-dihydrospiro[azetidine-3,2′-[1]benzopyran]-1-carboxamide] | ++ (^++p < 0.01) |  |  |
| 120 | Cn1ccc2cc(CNC(=O)N3CC4(CC(=O)c5cc(Cl)ccc5O4)C3)ccc21 [Example 3, 6′-chloro-N-[(1-methyl-1H-indol-5-yl)methyl]-4′-oxo-3′,4′-dihydrospiro[azetidine-3,2′-[1]benzopyran]-1-carboxamide] |  |  |  |
| 190 | Cn1ccc2cc(CNC(=O)N3CC4(CC(=O)c5ccc(F)cc5O4)C3)ccc21 [Example 6, 7′-fluoro-N-[(1-methyl-1H-indol-5-yl)methyl]-4′-oxo-3′,4′-dihydrospiro[azetidine-3,2′-[1]benzopyran]-1-carboxamide] | + (^+p < 0.05) | ++ (^++p < 0.01) | +++ (^+++p < 0.001) |
| 230 | COc1ccc2c(c1)C(=O)CC1(CN(C(=O)NCc3ccc4c(c3)c(Cl)cn4C)C1)O2 [Example 25] |  |  |  |
| 130 | Cn1cc(Cl)c2cc(CNC(=O)N3CC4(CC(=O)c5ccccc5O4)C3)ccc21 [Example 37] |  |  |  |
| 220 | Cn1cc(F)c2cc(CNC(=O)N3CC4(CC(=O)c5cc(F)ccc5O4)C3)ccc21 [Example 38] |  |  |  |
| 730 | Cn1cc(Cl)c2cc(CNC(=O)N3CC4(CC(=O)c5cc(F)ccc5O4)C3)cnc21 [Example 39] |  |  |  |
| 850 | Cn1cc(Br)c2cc(CNC(=O)N3CC4(CC(=O)c5cc(F)ccc5O4)C3)cnc21 [Example 53] |  |  |  |

The remaining lines, values behind:

| Compound | EC50 (human α7 nAchR) [nM] | reversal of the scopolamine-induced amnesia in the place recognition assay (exploration time novel vs. familiar arm, significance) (Male NMRI mice; 1 mg/kg i.p.) | reversal of the scopolamine-induced amnesia in the place recognition assay (exploration time novel vs. familiar arm, significance) (Male NMRI mice; 3 mg/kg i.p.) | reversal of the scopolamine-induced amnesia in the place recognition assay (exploration time novel vs. familiar arm, significance) (Male NMRI mice; 10 mg/kg i.p.) |
| --- | --- | --- | --- | --- |
| Cn1ccc2cc(CNC(=O)N3CCC4(CC(=O)c5cc(Cl)ccc5O4)C3)ccc21 (racemic) [Example 5] | 210 |  |  |  |
| Cn1ccc2cc(CNC(=O)N3CCC4(CC(=O)c5cc(Cl)ccc5O4)C3)ccc21 (single isomer, unassigned) [Example 5a] | 430 |  |  |  |
| Cn1ccc2cc(CNC(=O)N3CCC4(CC(=O)c5cc(Cl)ccc5O4)C3)ccc21 (single isomer, unassigned) [Example 5b] | 400 |  |  |  |
| Cn1ccc2cc(CNC(=O)N3CC4(CC(=O)c5ccccc5O4)C3)ccc21 [Example 7, N-[(1-methyl-1H-indol-5-yl)methyl]-4′-oxo-3′,4′-dihydrospiro[azetidine-3,2′-[1]benzopyran]-1-carboxamide] | 230 | +++ (^+++p < 0.001) | +++ (^+++p < 0.001) | +++ (^+++p < 0.001) |
| Cn1ccc2cc(CNC(=O)N3CCC4(CCc5cc(Cl)ccc5O4)CC3)ccc21 [Example 10, 6-chloro-N-[(1-methyl-1H-indol-5-yl)methyl]-3,4-dihydrospiro[1-benzopyran-2,4′-piperidine]-1′-carboxamide] | 100 |  |  |  |
| COc1ccc2c(c1)OC1(CCN(C(=O)NCc3ccc4c(ccn4C)c3)CC1)CC2=O [Example 21] | 280 |  |  |  |
| O=C1CC2(CN(C(=O)NCc3ccc4[nH]ccc4c3)C2)Oc2ccc(Cl)cc21 [Example 26, 6′-chloro-N-[(1H-indol-5-yl)methyl]-4′-oxo-3′,4′-dihydrospiro[azetidine-3,2′-[1]benzopyran]-1-carboxamide] | 390 |  | + (^+p < 0.05) |  |
| Cc1cc2cc(CNC(=O)N3CC4(CC(=O)c5cc(F)cc(F)c5O4)C3)ccc2[nH]1 [Example 41, 6′,8′-difluoro-N-[(2-methyl-1H-indol-5-yl)methyl]-4′-oxo-3′,4′-dihydrospiro[azetidine-3,2′-[1]benzopyran]-1-carboxamide] | 60 | + (^+p < 0.05) | + (^+p < 0.05) |  |
| O=C1CC2(CN(C(=O)NCc3ccc4[nH]c(Cl)cc4c3)C2)Oc2cc(Cl)ccc21 [Example 43, 7′-chloro-N-[(2-chloro-1H-indol-5-yl)methyl]-4′-oxo-3′,4′-dihydrospiro[azetidine-3,2′-[1]benzopyran]-1-carboxamide] | 360 | + (^+p < 0.05) | +++ (^+++p < 0.001) | +++ (^+++p < 0.001) |
| Cn1ccc2cc(CNC(=O)N3CC4(CC(=O)c5cc(C(F)(F)F)ccc5O4)C3)ccc21 [Example 50] | 150 |  |  |  |
| Cn1ccc2cc(CNC(=O)N3CC4(CC(=O)c5ccc(C(F)(F)F)cc5O4)C3)ccc21 [Example 52, N-[(1-methyl-1H-indol-5-yl)methyl]-4′-oxo-7′-(trifluoromethyl)-3′,4′-dihydrospiro[azetidine-3,2′-[1]benzopyran]-1-carboxamide] | 130 |  |  | + (^+p < 0.05) |
| Cn1ccc2cc(CNC(=O)N3CC4(CC(=O)c5cc(Cl)cc(Cl)c5O4)C3)cnc21 [Example 58] | 470 |  |  |  |
| Cn1ccc2cc(CNC(=O)N3CC4(CC(=O)c5ccc(C(F)(F)F)cc5O4)C3)cnc21 [Example 59] | 500 |  |  |  |
| O=C1CC2(CN(C(=O)NCc3ccc4[nH]c(C(F)(F)F)cc4c3)C2)Oc2cc(F)ccc21 [Example 61, 7′-fluoro-4′-oxo-N-{[2-(trifluoromethyl)-1H-indol-5-yl]methyl}-3′,4′-dihydrospiro[azetidine-3,2′-[1]benzopyran]-1-carboxamide] |  |  | ++ (^++p < 0.01) | +++ (^+++p < 0.001) |
| Cc1cc2cc(CNC(=O)N3CC4(CC(=O)c5ccc(C(F)(F)F)cc5O4)C3)cnc2n1C [Example 65] | 750 |  |  |  |
| O=C1CC2(CN(C(=O)NCc3ccc4[nH]c(C(F)F)cc4c3)C2)Oc2cc(F)ccc21 [Example 69, N-{[2-(difluoromethyl)-1H-indol-5-yl]methyl}-7′-fluoro-4′-oxo-3′,4′-dihydrospiro[azetidine-3,2′-[1]benzopyran]-1-carboxamide] | 120 |  |  |  |
| CN1CCCc2cc(CNC(=O)N3CC4(CC(=O)c5ccc(F)cc5O4)C3)ccc21 [Example 71, 7′-Fluoro-N-[(1-methyl-1,2,3,4-tetrahydroquinolin-6-yl)methyl]-4′-oxo-3′,4′-dihydrospiro[azetidine-3,2′-[1]benzopyran]-1-carboxamide] | 2300 |  |  |  |
